Like-named read-outs stand apart in the source and are kept apart here.
How the values were obtained:
[1] = target: Focal Adhesion Kinase (FAK) (Homo sapiens, UniProt Q05397); assay: FAK assay system (Focal Adhesion Kinase inhibition); format: biochemical
[2] = target: IGF-IR (Homo sapiens, UniProt P08069); assay: Cellular Capture ELISA of IGF-I induced autophosphorylation of the IGF-IR; format: cell-based; settings: read-out: IGF-1R IC50
Protocol: In this assay the activity of the compounds of the invention against Insulin-like growth factor I (IGF-I) induced autophosphorylation of the IGF-IR is determined.

[3] = tested on: Mouse mammary carcinoma 4T1 cells; assay: Anchorage-independent tumor cell growth assay; format: cell-based
Protocol: Cells are cultured for 2 h and inhibitors are added at various concentrations in a final concentration of 0.1% DMSO. After 48 h, cell growth is assayed with the cell counting kit-8 (Wako Pure Chemical), which uses a water soluble tetrazolium salt WST8. Twenty μL of the reagent is added into each well and cells are further cultured for 2 h. The optical density is measured at 450 nm.

[4] = target: FAK (Mus musculus, UniProt P34152); assay: Phos IC50 (phosphorylation); format: cell-based
[5] = tested on: T Cell; assay: T Cell Migration; format: cell-based
[6] = target: GST-ALK protein tyrosine kinase (Homo sapiens, UniProt Q9UM73); assay: In vitro enzyme assay using GST-ALK protein tyrosine kinase (filter binding assay); format: biochemical; settings: b80; assay not specified further; lower end printed as <0.5; read-out: IC50, inhibition of tyrosine kinase activity of anaplastic lymphoma kinase (ALK)
Protocol: Assays are incubated for 10 min at ambient temperature. […] Following washing (0.5% H3PO4), plates are counted in a liquid scintillation counter. IC50 values are calculated by linear regression analysis of the percentage inhibition.

Chain of IGF-IR (P08069 31-1367): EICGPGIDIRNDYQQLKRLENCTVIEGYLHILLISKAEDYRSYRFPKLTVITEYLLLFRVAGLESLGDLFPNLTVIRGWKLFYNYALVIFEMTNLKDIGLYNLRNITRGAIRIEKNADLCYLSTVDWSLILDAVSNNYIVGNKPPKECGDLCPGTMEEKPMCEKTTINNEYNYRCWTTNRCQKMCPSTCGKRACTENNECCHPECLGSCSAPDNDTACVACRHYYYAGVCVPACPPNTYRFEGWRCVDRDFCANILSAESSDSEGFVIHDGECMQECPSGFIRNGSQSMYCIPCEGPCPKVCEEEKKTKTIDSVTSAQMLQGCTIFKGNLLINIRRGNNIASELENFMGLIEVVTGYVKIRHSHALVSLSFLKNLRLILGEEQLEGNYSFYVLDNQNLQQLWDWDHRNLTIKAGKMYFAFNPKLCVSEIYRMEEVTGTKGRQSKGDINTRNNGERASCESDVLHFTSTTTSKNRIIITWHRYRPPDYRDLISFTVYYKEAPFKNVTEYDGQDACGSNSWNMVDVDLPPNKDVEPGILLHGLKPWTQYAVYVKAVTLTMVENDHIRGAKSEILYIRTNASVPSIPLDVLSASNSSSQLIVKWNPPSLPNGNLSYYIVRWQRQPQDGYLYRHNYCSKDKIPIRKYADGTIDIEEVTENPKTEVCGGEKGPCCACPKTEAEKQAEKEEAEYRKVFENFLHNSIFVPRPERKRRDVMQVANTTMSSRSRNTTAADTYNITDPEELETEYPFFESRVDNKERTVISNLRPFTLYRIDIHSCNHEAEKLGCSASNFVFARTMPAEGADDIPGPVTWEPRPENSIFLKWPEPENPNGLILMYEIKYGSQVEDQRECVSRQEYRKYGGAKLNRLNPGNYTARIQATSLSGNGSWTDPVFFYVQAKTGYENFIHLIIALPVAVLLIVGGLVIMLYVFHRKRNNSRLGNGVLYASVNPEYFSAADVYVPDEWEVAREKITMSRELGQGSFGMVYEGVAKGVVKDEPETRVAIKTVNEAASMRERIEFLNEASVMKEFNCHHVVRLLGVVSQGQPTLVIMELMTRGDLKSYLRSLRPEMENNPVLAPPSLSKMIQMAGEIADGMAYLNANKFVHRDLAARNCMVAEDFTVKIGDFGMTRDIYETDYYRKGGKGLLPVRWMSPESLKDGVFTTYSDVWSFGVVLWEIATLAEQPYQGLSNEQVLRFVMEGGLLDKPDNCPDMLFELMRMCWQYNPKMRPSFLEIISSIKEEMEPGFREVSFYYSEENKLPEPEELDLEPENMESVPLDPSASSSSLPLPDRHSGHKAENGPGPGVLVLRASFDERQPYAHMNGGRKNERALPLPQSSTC
Chain of FAK (P34152 2-1052): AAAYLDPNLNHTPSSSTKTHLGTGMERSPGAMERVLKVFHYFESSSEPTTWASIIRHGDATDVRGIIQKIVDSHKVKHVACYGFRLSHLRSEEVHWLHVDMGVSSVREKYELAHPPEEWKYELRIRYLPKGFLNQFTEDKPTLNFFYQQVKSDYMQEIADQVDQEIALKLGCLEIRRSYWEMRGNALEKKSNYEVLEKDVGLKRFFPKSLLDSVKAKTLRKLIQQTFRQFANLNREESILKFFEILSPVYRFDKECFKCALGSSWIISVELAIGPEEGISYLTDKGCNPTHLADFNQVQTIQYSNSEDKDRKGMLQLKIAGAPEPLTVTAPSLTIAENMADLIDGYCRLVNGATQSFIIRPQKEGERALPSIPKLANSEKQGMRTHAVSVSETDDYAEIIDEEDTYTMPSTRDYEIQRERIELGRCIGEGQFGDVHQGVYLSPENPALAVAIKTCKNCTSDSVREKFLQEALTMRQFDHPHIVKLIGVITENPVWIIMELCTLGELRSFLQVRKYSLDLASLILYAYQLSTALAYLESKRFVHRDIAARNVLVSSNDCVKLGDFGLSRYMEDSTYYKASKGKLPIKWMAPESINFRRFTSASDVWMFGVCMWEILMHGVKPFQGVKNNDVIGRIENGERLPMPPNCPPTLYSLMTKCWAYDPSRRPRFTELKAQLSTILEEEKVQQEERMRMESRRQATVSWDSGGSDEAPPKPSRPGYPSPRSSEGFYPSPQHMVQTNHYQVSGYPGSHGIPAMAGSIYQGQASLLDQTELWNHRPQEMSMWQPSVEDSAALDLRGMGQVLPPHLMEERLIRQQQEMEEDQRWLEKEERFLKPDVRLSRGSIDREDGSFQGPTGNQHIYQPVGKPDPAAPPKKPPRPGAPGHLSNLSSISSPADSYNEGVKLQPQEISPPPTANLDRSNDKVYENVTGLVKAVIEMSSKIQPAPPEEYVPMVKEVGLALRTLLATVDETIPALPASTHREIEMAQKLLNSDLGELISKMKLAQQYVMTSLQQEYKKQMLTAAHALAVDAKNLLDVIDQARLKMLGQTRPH
Chain of Focal Adhesion Kinase (FAK) (Q05397 384-706): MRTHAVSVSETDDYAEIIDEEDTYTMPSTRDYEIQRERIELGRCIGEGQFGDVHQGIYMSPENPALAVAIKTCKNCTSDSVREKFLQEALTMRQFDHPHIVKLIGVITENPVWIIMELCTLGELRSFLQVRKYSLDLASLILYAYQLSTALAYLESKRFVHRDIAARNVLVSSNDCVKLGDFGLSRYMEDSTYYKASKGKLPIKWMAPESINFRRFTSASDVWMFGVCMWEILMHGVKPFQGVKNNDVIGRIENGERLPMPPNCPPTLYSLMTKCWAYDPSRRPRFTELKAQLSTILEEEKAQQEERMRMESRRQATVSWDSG
Chain of GST-ALK protein tyrosine kinase (Q9UM73 1116-1392): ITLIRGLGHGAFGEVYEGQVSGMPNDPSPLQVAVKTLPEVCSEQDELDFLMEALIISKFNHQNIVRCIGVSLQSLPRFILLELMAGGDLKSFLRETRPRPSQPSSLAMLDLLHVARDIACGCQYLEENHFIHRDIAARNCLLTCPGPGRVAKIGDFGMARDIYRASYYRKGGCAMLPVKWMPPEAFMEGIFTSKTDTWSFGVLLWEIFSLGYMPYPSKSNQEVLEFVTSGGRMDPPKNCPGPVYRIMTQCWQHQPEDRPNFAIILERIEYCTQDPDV

Compound	IC50 ([1]; read-out: FAK IC50) [nM]	IC50 [2] [nM]	IC50 ([3]; Mus musculus, 4T1) [nM]	IC50 [4] [nM]	IC50 ([5]; T-cell) [nM]	IC50 [6] [nM]	IC50 [3] [nM]	IC50 [5] [nM]	IC50 ([1]; FAK IC50) [nM]
CNS(=O)(=O)c1ccccc1Nc1nc(Nc2cc(N3CCOCC3)ccc2OC)ncc1Br [Example 3-32]	14	120	490	180	280	–	–	–	–
CNS(=O)(=O)c1ccccc1Nc1nc(Nc2ccc(OC3CCN(C)CC3)cc2OC)ncc1Br [Example 3-33]	2.9	130	50	30	90	–	–	–	–
CNS(=O)(=O)c1ccccc1Nc1nc(Nc2cc(N3CCN(C(C)=O)CC3)ccc2OC)ncc1Br [Example 3-34]	–	–	240	100	130	–	–	–	–
CNS(=O)(=O)c1ccccc1Nc1nc(Nc2cc(OCCN3CCOCC3)ccc2OC)ncc1Br [Example 3-35]	13	3550	170	20	800	–	–	–	–
CNS(=O)(=O)c1ccccc1Nc1nc(Nc2ccc(N3CCN(C)CC3)cc2OC)ncc1Br [Example 3-39]	2	90	30	20	1000	–	–	–	–
CNS(=O)(=O)c1ccccc1Nc1nc(Nc2ccc(N3CCN(C(C)=O)CC3)cc2OC)ncc1Br [Example 3-46]	4	–	180	100	300	–	–	–	–
CNS(=O)(=O)c1ccccc1Nc1nc(Nc2cc(N(C)C)ccc2OC)ncc1Br [Example 3-64]	5	–	700	130	210	–	–	–	–
CNS(=O)(=O)c1ccccc1Nc1nc(Nc2cc(N3CCC(N4CCCCC4)CC3)ccc2OC)ncc1Br [Example 3-69]	4	–	110	200	580	–	–	–	–
CNS(=O)(=O)c1ccccc1Nc1nc(Nc2cc(OC3CCN(C)CC3)ccc2OC)ncc1Br [Example 3-76]	15	–	1300	290	700	–	–	–	–
CNC(=O)c1ccccc1Nc1nc(Nc2cc(N3CCOCC3)ccc2OC)ncc1Cl [Example 7-6]	17	–	1090	800	250	–	–	–	–
CNC(=O)c1ccccc1Nc1nc(Nc2ccc(N3CCC(NC)C3)cc2OC)ncc1Cl (centres unmarked) [Example 7-12]	1.9	620	1000	900	310	–	–	–	–
CNC(=O)c1ccccc1Nc1nc(Nc2ccc(N3CCN4CCOC[C@H]4C3)cc2OC)ncc1Cl [Example 7-15]	4.5	260	190	60	–	0.5 to 200	–	–	–
CNC(=O)c1ccccc1Nc1nc(Nc2ccc(N3CCOCC3)cc2OC)ncc1Cl [Example 7A, 2-[5-Chloro-2-(2-methoxy-4-morpholin-4-yl-phenylamino)-pyrimidin-4-ylamino]-N-methyl-benzamide]	–	–	470	210	40	–	–	–	–
CCNC(=O)c1ccccc1Nc1nc(Nc2ccc(N3CCOCC3)cc2OC)ncc1Cl [Example 9-1]	22	–	1000	360	600	–	–	–	–
CCNC(=O)c1ccccc1Nc1nc(Nc2ccc(OC3CCN(C)CC3)cc2OC)ncc1Cl [Example 9-6]	23	–	400	3000	300	–	–	–	–
COc1cc(N2CCOCC2)ccc1Nc1ncc(Cl)c(Nc2cccc3c2C(=O)N(C)C3)n1 [Example 12-1, 7-[5-Chloro-2-(2-methoxy-4-morpholin-4-yl-phenylamino)-pyrimidin-4-ylamino]-2-methyl-2,3-dihydro-isoindol-1-one]	2.5	–	400	90	220	–	–	–	–
COc1cc(N2CCOCC2)ccc1Nc1ncc(Cl)c(Nc2ccccc2C(=O)N(C)C)n1 [Example 14-1]	19	–	1470	200	280	–	–	–	–
COc1cc(N2CCOCC2)ccc1Nc1ncc(Cl)c(Nc2ccccc2C(=O)NC(C)C)n1 [Example 14-2]	190	–	1100	2000	1000	–	–	–	–
CNC1CCN(c2ccc(Nc3ncc(Cl)c(Nc4ccccc4S(=O)(=O)NC(C)C)n3)c(OC)c2)C1 (centres unmarked) [Example 19-1]	< 1	1410	300	200	290	–	–	–	–

Compound	IC50 ([1]; read-out: FAK IC50) [nM]	IC50 [2] [nM]	IC50 ([3]; Mus musculus, 4T1) [nM]	IC50 [4] [nM]	IC50 ([5]; T-cell) [nM]	IC50 [6] [nM]	IC50 [3] [nM]	IC50 [5] [nM]	IC50 ([1]; FAK IC50) [nM]
COc1cc(N2CCN(C)CC2)ccc1Nc1ncc(Cl)c(Nc2ccccc2S(=O)(=O)NC(C)C)n1 [Example 19-5]	1.8	–	–	200	–	–	670	70	–
COc1cc(N2CCOCC2)ccc1Nc1ncc(Cl)c(Nc2ccccc2S(=O)(=O)NC(C)C)n1 [Example 19-8]	3.2	130	400	30	290	–	–	–	–
COc1cc(N2CCC(N(C)C)C2)ccc1Nc1ncc(Cl)c(Nc2ccccc2S(=O)(=O)NC(C)C)n1 (centres unmarked) [Example 19-9]	–	480	390	–	300	–	–	–	1.3
CC(C)NS(=O)(=O)c1ccccc1Nc1nc(Nc2ccc(OC3CCN(C)CC3)cc2F)ncc1Cl [Example 19-28]	4.8	460	120	100	300	–	–	–	–
CNS(=O)(=O)c1ccccc1Nc1nc(Nc2ccc(N3CCOCC3)cc2OC)ncc1Cl [Example 20-1]	10	700	180	300	250	–	–	–	–
CNS(=O)(=O)c1ccccc1Nc1nc(Nc2ccc(N3CCN(C(C)=O)CC3)cc2OC)ncc1Cl [Example 20-2]	9	520	170	120	750	–	–	–	–
CNS(=O)(=O)c1ccccc1Nc1nc(Nc2ccc(N3CCN(C)CC3)cc2OC)ncc1Cl [Example 20-6]	5	–	140	360	49000	–	–	–	–
CCC(CC)NS(=O)(=O)c1ccccc1Nc1nc(Nc2ccc(OC3CCN(C)CC3)cc2OC)ncc1Cl [Example 23-1]	3.4	530	200	600	630	–	–	–	–
CCCS(=O)(=O)c1ccccc1Nc1nc(Nc2ccc(N3CCN(C(C)=O)CC3)cc2OC)ncc1Cl [Example 26-2]	1.9	390	120	30	90	–	–	–	–
CCCS(=O)(=O)c1ccccc1Nc1nc(Nc2ccc(N3CCC(N4CCCCC4)CC3)cc2OC)ncc1Cl [Example 26-3]	1.4	230	130	100	–	0.5 to 200	–	–	–
CCCS(=O)(=O)c1ccccc1Nc1nc(Nc2ccc(N3CCC(O)CC3)cc2OC)ncc1Cl [Example 26-4]	4.9	1160	430	50	290	–	–	–	–
CCCS(=O)(=O)c1ccccc1Nc1nc(Nc2ccc(N3CCN(C(C)=O)C(C)(C)C3)cc2OC)ncc1Cl [Example 26-11]	4.4	–	780	400	500	–	–	–	–
CCCS(=O)(=O)c1ccccc1Nc1nc(Nc2cc(N3CCOCC3)ccc2OC)ncc1Cl [Example 26-17]	17	–	100	300	260	–	–	–	–
CCCS(=O)(=O)c1ccccc1Nc1nc(Nc2ccc(N3CCC(N(C)C)C3)cc2OC)ncc1Cl (centres unmarked) [Example 26-24]	1	–	–	500	–	–	480	900	–
COc1cc(N2CCC(N3CCOCC3)CC2)ccc1Nc1ncc(Cl)c(Nc2ccccc2S(=O)(=O)C(C)C)n1 [Example 28-13]	7.8	–	550	100	290	–	–	–	–
COc1cc(N2CCC(O)CC2)ccc1Nc1ncc(Cl)c(Nc2ccccc2S(=O)(=O)C(C)C)n1 [Example 28-16]	11	–	1000	110	600	–	–	–	–
COc1cc(N2CCC[C@H](C(N)=O)C2)ccc1Nc1ncc(Cl)c(Nc2ccccc2S(=O)(=O)C(C)C)n1 [Example 28-27]	2.4	–	420	300	500	–	–	–	–
COc1cc(N2CCC[C@@H](C(N)=O)C2)ccc1Nc1ncc(Cl)c(Nc2ccccc2S(=O)(=O)C(C)C)n1 [Example 28-28]	5.2	–	520	400	1000	–	–	–	–

— patent publication US7893074B2, “2, 4-pyrimidinediamines useful in the treatment of neoplastic diseases, inflammatory and immune system disorders” (Novartis AG, priority 2003, dated 2011)
